Test results published in US20230085307A1, “PYRIDAZINONE COMPOUND AND HERBICIDE” (NISSAN CHEMICAL CORPORATION, priority 2019, published 2023).

Legend:
chickweed [1] = experiment: Test Example 5: herbicidal effect by foliage application, plastic box (Table 20, symbol P); format: in vivo, common chickweed (Stellaria media); conditions: foliage application, AAH 320 g/ha, evaluated three weeks after application
In short: (§1)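 Post-emergence foliar test in sterilized diluvial soil. Compound applied as water-diluted emulsion at a predetermined rate to 14-day-old plants; evaluation at three weeks.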

rice flat sedge = experiment: Test Example 3: herbicidal effect by foliage application, Wagner pot (Table 18, symbol E); format: in vivo, rice flat sedge (Cyperus iria); conditions: amount of applied herbicide 320 g/ha
In short: (§2)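 Plants were sown in alluvial soil held under 0.1–0.5 cm standing water and grown 14 days in a greenhouse at 25–30 °C. An emulsifiable formulation, water-diluted to the set dose, was then sprayed onto the foliage, and effects were scored three weeks later using previously defined criteria.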

blackgrass [2] = experiment: Test Example 5: herbicidal effect by foliage application, plastic box (Table 20, symbol J); format: in vivo, blackgrass (Alopecurus myosuroides); conditions: foliage application, AAH 320 g/ha, evaluated three weeks after application
In short: as §1

barnyard grass [3] = experiment: Test Example 5: herbicidal effect by foliage application, plastic box (Table 20, symbol H); format: in vivo, barnyard grass (Echinochloa crus-galli); conditions: foliage application, AAH 320 g/ha, evaluated three weeks after application
In short: as §1

velvetleaf [4] = experiment: Test Example 4: herbicidal effect by soil treatment (Table 19, symbol M); format: in vivo, velvetleaf (Abutilon theophrasti); conditions: amount of applied herbicide 320 g/ha
In short: (§3)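 Emulsion of test compound, water-diluted to predetermined amount, sprayed on soil after sowing (seed depth ~1.5 cm, sterilized diluvial soil). Greenhouse, 25–30° C. Effect graded at three weeks post-spray.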

wild oat [5] = experiment: Test Example 5: herbicidal effect by foliage application, plastic box (Table 20, symbol I); format: in vivo, wild oat (Avena fatua); conditions: foliage application, AAH 320 g/ha, evaluated three weeks after application
In short: as §1

Italian ryegrass [6] = experiment: Test Example 5: herbicidal effect by foliage application, plastic box (Table 20, symbol K); format: in vivo, Italian ryegrass (Lolium multiflorum); conditions: foliage application, AAH 320 g/ha, evaluated three weeks after application
In short: as §1

Italian ryegrass [7] = experiment: Test Example 4: herbicidal effect by soil treatment (Table 19, symbol K); format: in vivo, Italian ryegrass (Lolium multiflorum); conditions: amount of applied herbicide 320 g/ha
In short: as §3

Japanese bulrush = experiment: Test Example 1: herbicidal activity, application before weed generation under submerged conditions (Table 16, symbol B); format: in vivo, Japanese bulrush (Schoenoplectus juncoides); conditions: 320 g/ha applied herbicide
In short: (§4)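 Alluvial soil was flooded to 4 cm depth, weed seeds were sown mixed and 2.5-leaf rice seedlings were transplanted. On sowing day, the compound's emulsion, diluted in water to a set dose, was applied to the water surface. Plants grew at 25–30 °C and were scored 0–5 after three weeks.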

velvetleaf [8] = experiment: Test Example 5: herbicidal effect by foliage application, plastic box (Table 20, symbol M); format: in vivo, velvetleaf (Abutilon theophrasti); conditions: foliage application, AAH 320 g/ha, evaluated three weeks after application
In short: as §1

windgrass [9] = experiment: Test Example 4: herbicidal effect by soil treatment (Table 19, symbol L); format: in vivo, windgrass (Apera spica-venti); conditions: amount of applied herbicide 320 g/ha
In short: as §3

persian speedwell [10] = experiment: Test Example 5: herbicidal effect by foliage application, plastic box (Table 20, symbol R); format: in vivo, Persian speedwell (Veronica persica); conditions: foliage application, AAH 320 g/ha, evaluated three weeks after application
In short: as §1

barnyard grass [11] = experiment: Test Example 4: herbicidal effect by soil treatment (Table 19, symbol H); format: in vivo, barnyard grass (Echinochloa crus-galli); conditions: amount of applied herbicide 320 g/ha
In short: as §3

oval-leafed pondweed = experiment: Test Example 1: herbicidal activity, application before weed generation under submerged conditions (Table 16, symbol C); format: in vivo, oval-leafed pondweed (Monochoria vaginalis); conditions: 320 g/ha applied herbicide
In short: as §4

Chinese sprangletop = experiment: Test Example 3: herbicidal effect by foliage application, Wagner pot (Table 18, symbol D); format: in vivo, chinese sprangletop (Leptochloa chinensis); conditions: amount of applied herbicide 320 g/ha
In short: as §2

lambsquarters [12] = experiment: Test Example 5: herbicidal effect by foliage application, plastic box (Table 20, symbol O); format: in vivo, lambsquarters (Chenopodium album); conditions: foliage application, AAH 320 g/ha, evaluated three weeks after application
In short: as §1

green foxtail [13] = experiment: Test Example 4: herbicidal effect by soil treatment (Table 19, symbol G); format: in vivo, green foxtail (Setaria viridis); conditions: amount of applied herbicide 320 g/ha
In short: as §3

windgrass [14] = experiment: Test Example 5: herbicidal effect by foliage application, plastic box (Table 20, symbol L); format: in vivo, windgrass (Apera spica-venti); conditions: foliage application, AAH 320 g/ha, evaluated three weeks after application
In short: as §1

late watergrass = experiment: Test Example 1: herbicidal activity, application before weed generation under submerged conditions (Table 16, symbol A); format: in vivo, late watergrass (Echinochloa oryzicola); conditions: 320 g/ha applied herbicide
In short: as §4

chickweed [15] = experiment: Test Example 4: herbicidal effect by soil treatment (Table 19, symbol P); format: in vivo, common chickweed (Stellaria media); conditions: amount of applied herbicide 320 g/ha
In short: as §3

blackgrass [16] = experiment: Test Example 4: herbicidal effect by soil treatment (Table 19, symbol J); format: in vivo, blackgrass (Alopecurus myosuroides); conditions: amount of applied herbicide 320 g/ha
In short: as §3

wild oat [17] = experiment: Test Example 4: herbicidal effect by soil treatment (Table 19, symbol I); format: in vivo, wild oat (Avena fatua); conditions: amount of applied herbicide 320 g/ha
In short: as §3

lambsquarters [18] = experiment: Test Example 4: herbicidal effect by soil treatment (Table 19, symbol O); format: in vivo, lambsquarters (Chenopodium album); conditions: amount of applied herbicide 320 g/ha
In short: as §3

southern crabgrass [19] = experiment: Test Example 4: herbicidal effect by soil treatment (Table 19, symbol F); format: in vivo, southern crabgrass (Digitaria ciliaris); conditions: amount of applied herbicide 320 g/ha
In short: as §3

persian speedwell [20] = experiment: Test Example 4: herbicidal effect by soil treatment (Table 19, symbol R); format: in vivo, Persian speedwell (Veronica persica); conditions: amount of applied herbicide 320 g/ha
In short: as §3

green foxtail [21] = experiment: Test Example 5: herbicidal effect by foliage application, plastic box (Table 20, symbol G); format: in vivo, green foxtail (Setaria viridis); conditions: foliage application, AAH 320 g/ha, evaluated three weeks after application
In short: as §1

redroot pigweed [22] = experiment: Test Example 4: herbicidal effect by soil treatment (Table 19, symbol N); format: in vivo, redroot pigweed (Amaranthus retroflexus); conditions: amount of applied herbicide 320 g/ha
In short: as §3

barnyard grass [23] = experiment: Test Example 3: herbicidal effect by foliage application, Wagner pot (Table 18, symbol H); format: in vivo, barnyard grass (Echinochloa crus-galli); conditions: amount of applied herbicide 320 g/ha
In short: as §2

redroot pigweed [24] = experiment: Test Example 5: herbicidal effect by foliage application, plastic box (Table 20, symbol N); format: in vivo, redroot pigweed (Amaranthus retroflexus); conditions: foliage application, AAH 320 g/ha, evaluated three weeks after application
In short: as §1

southern crabgrass [25] = experiment: Test Example 5: herbicidal effect by foliage application, plastic box (Table 20, symbol F); format: in vivo, southern crabgrass (Digitaria ciliaris); conditions: foliage application, AAH 320 g/ha, evaluated three weeks after application
In short: as §1

Structure (SMILES) | P: chickweed, herbicidal effect (criteria 0-5) (chickweed [1]) | herbicidal effect on E: rice flat sedge (rice flat sedge) | J: blackgrass, herbicidal effect (criteria 0-5) (blackgrass [2]) | H: barnyard grass, herbicidal effect (criteria 0-5) (barnyard grass [3]) | herbicidal effect on M: velvetleaf (velvetleaf [4]) | I: wild oat, herbicidal effect (criteria 0-5) (wild oat [5]) | K: Italian ryegrass, herbicidal effect (criteria 0-5) (Italian ryegrass [6]) | herbicidal effect on K: Italian ryegrass (Italian ryegrass [7]) | Herbicidal effect on B: Japanese bulrush (grade 0-5) (Japanese bulrush) | M: velvetleaf, herbicidal effect (criteria 0-5) (velvetleaf [8]) | herbicidal effect on L: windgrass (windgrass [9]) | R: persian speedwell, herbicidal effect (criteria 0-5) (persian speedwell [10]) | herbicidal effect on H: barnyard grass (barnyard grass [11]) | Herbicidal effect on C: oval-leafed pondweed (grade 0-5) (oval-leafed pondweed) | herbicidal effect on D: Chinese sprangletop (Chinese sprangletop) | O: lambsquarters, herbicidal effect (criteria 0-5) (lambsquarters [12]) | herbicidal effect on G: green foxtail (green foxtail [13]) | L: windgrass, herbicidal effect (criteria 0-5) (windgrass [14]) | Herbicidal effect on A: late watergrass (grade 0-5) (late watergrass) | herbicidal effect on P: chickweed (chickweed [15]) | other results
Cc1nn(C)c(=O)c(-c2c(-c3ccc(CSC(C)C)cc3)sc3ccc(F)cc23)c1O [2-321] | 5 (Herbicidal rate of 90% or more (almost completely withered)) | 5 (Herbicidal rate of 90% or more (almost completely withered)) | 4 (Herbicidal rate of 70% or more and less than 90%) | 4 (Herbicidal rate of 70% or more and less than 90%) | 1 (Herbicidal rate of 5% or more and less than 20%) | 3 (Herbicidal rate of 40% or more and less than 70%) | 4 (Herbicidal rate of 70% or more and less than 90%) | 0 (Herbicidal rate of 5% or less (almost no effect)) | 3 (Herbicidal rate of 40% or more and less than 70%) | 5 (Herbicidal rate of 90% or more (almost completely withered)) | 0 (Herbicidal rate of 5% or less (almost no effect)) | 5 (Herbicidal rate of 90% or more (almost completely withered)) | 3 (Herbicidal rate of 40% or more and less than 70%) | 0 (Herbicidal rate of 5% or less (almost no effect)) | 3 (Herbicidal rate of 40% or more and less than 70%) | 5 (Herbicidal rate of 90% or more (almost completely withered)) | 4 (Herbicidal rate of 70% or more and less than 90%) | 5 (Herbicidal rate of 90% or more (almost completely withered)) | 3 (Herbicidal rate of 40% or more and less than 70%) | 0 (Herbicidal rate of 5% or less (almost no effect)) | herbicidal effect on J: blackgrass (blackgrass [16]): 0 (Herbicidal rate of 5% or less (almost no effect)); herbicidal effect on I: wild oat (wild oat [17]): 0 (Herbicidal rate of 5% or less (almost no effect)); herbicidal effect on O: lambsquarters (lambsquarters [18]): 3 (Herbicidal rate of 40% or more and less than 70%); herbicidal effect on F: southern crabgrass (southern crabgrass [19]): 3 (Herbicidal rate of 40% or more and less than 70%); herbicidal effect on R: persian speedwell (persian speedwell [20]): 5 (Herbicidal rate of 90% or more (almost completely withered)); G: green foxtail, herbicidal effect (criteria 0-5) (green foxtail [21]): 5 (Herbicidal rate of 90% or more (almost completely withered)); herbicidal effect on N: redroot pigweed (redroot pigweed [22]): 4 (Herbicidal rate of 70% or more and less than 90%); herbicidal effect on H: barnyard grass (barnyard grass [23]): 5 (Herbicidal rate of 90% or more (almost completely withered)); N: redroot pigweed, herbicidal effect (criteria 0-5) (redroot pigweed [24]): 5 (Herbicidal rate of 90% or more (almost completely withered)); F: southern crabgrass, herbicidal effect (criteria 0-5) (southern crabgrass [25]): 5 (Herbicidal rate of 90% or more (almost completely withered))
Cc1nn(C)c(=O)c(-c2c(-c3ccc(F)cc3F)sc3ccc(F)cc23)c1O [2-342] | 5 (Herbicidal rate of 90% or more (almost completely withered)) | 5 (Herbicidal rate of 90% or more (almost completely withered)) | 4 (Herbicidal rate of 70% or more and less than 90%) | 5 (Herbicidal rate of 90% or more (almost completely withered)) | 3 (Herbicidal rate of 40% or more and less than 70%) | 4 (Herbicidal rate of 70% or more and less than 90%) | 5 (Herbicidal rate of 90% or more (almost completely withered)) | 5 (Herbicidal rate of 90% or more (almost completely withered)) | 3 (Herbicidal rate of 40% or more and less than 70%) | 5 (Herbicidal rate of 90% or more (almost completely withered)) | 3 (Herbicidal rate of 40% or more and less than 70%) | 5 (Herbicidal rate of 90% or more (almost completely withered)) | 4 (Herbicidal rate of 70% or more and less than 90%) | 0 (Herbicidal rate of 5% or less (almost no effect)) | 5 (Herbicidal rate of 90% or more (almost completely withered)) | 5 (Herbicidal rate of 90% or more (almost completely withered)) | 4 (Herbicidal rate of 70% or more and less than 90%) | 5 (Herbicidal rate of 90% or more (almost completely withered)) | 2 (Herbicidal rate of 20% or more and less than 40%) | 3 (Herbicidal rate of 40% or more and less than 70%) | herbicidal effect on J: blackgrass (blackgrass [16]): 3 (Herbicidal rate of 40% or more and less than 70%); herbicidal effect on I: wild oat (wild oat [17]): 0 (Herbicidal rate of 5% or less (almost no effect)); herbicidal effect on O: lambsquarters (lambsquarters [18]): 4 (Herbicidal rate of 70% or more and less than 90%); herbicidal effect on F: southern crabgrass (southern crabgrass [19]): 3 (Herbicidal rate of 40% or more and less than 70%); herbicidal effect on R: persian speedwell (persian speedwell [20]): 3 (Herbicidal rate of 40% or more and less than 70%); G: green foxtail, herbicidal effect (criteria 0-5) (green foxtail [21]): 5 (Herbicidal rate of 90% or more (almost completely withered)); herbicidal effect on N: redroot pigweed (redroot pigweed [22]): 4 (Herbicidal rate of 70% or more and less than 90%); herbicidal effect on H: barnyard grass (barnyard grass [23]): 5 (Herbicidal rate of 90% or more (almost completely withered)); N: redroot pigweed, herbicidal effect (criteria 0-5) (redroot pigweed [24]): 5 (Herbicidal rate of 90% or more (almost completely withered)); F: southern crabgrass, herbicidal effect (criteria 0-5) (southern crabgrass [25]): 5 (Herbicidal rate of 90% or more (almost completely withered))
